Oligonucleotides are written 5' to 3', each unit as a sugar letter and its base; * is a phosphorothioate linkage, no mark a phosphodiester; rarer units and linkages stand in square brackets, end groups in braces. Plain capitals give the bases only. e = 2'-O-(2-methoxyethyl) (MOE); [5mC] = 5-methylcytosine
Experiments:
[1] = test system: H3K27 trimethylation over the SMN2 gene; assay: ChIP-qPCR of H3K27 trimethylation over the SMN2 gene in HEK293T cells; format: cell-based, human; details: ASO1 transfection
Experimental: FIGS. 10A-10D show control experiments for the opposing roles of ASO1 on chromatin and splicing. […] Top: control Western blot for efficient expression of the c-Myc-SMN fusion protein encoded by plasmid pcDNA3.1+SMN1mycHIS (Addgene, cat.# 71687) using anti-tubulin (tub.) as loading control. Bottom: SMN2 E7 RT-PCR of cells co-transfected with ASO1 and plasmid. […] Distribution of these histone marks was assessed by ChIP-qPCR, with amplicons mapping near the numbered exons (E) and introns (i). Three independent immunoprecipitation replicates were conducted per experiment. Data are represented as mean ± S.D. (n = 5; in all cases p was much higher than 0.05, two-tailed Student’s t test). […] Top: control Western blot for efficient expression of the GFPRNaseH fusion protein encoded by plasmid pEGFP-RNASEH1 (Addgene, cat.# 108699), using anti-actin (act.) as loading control. Bottom: SMN2 E7 RT-PCR of cells co-transfected with ASO1 and the RNase H plasmid. […] Top: control Western blot for efficient AGO1 knockdown using anti-tubulin (tub.) as loading control. […]
Approximately 2×10^6 HEK293T cells per sample were treated for 10 min in 1% (v/v) formaldehyde at room temperature to crosslink protein-DNA complexes. […] Immunoprecipitated DNA (1.5 µl) and serial dilutions of the 10% input DNA (1:4, 1:20, 1: 100, and 1:500) were analyzed by SYBR-Green real-time qPCR.

[2] = test system: total RNAPII along the human SMN2 transgene; assay: ChIP-qPCR of total RNAPII along the human SMN2 transgene in brain and liver of P7 SMA mice; format: in vivo, mouse; details: P7 SMA mice injected with ASO1
Experimental: H3K9me2 (left) and total RNAPII (right) distribution along the human SMN2 transgene, assessed by ChIP-qPCR, in brain (FIG. 12A) and liver (FIG. 12B) of P7 SMA mice injected with ASO1. Vertical arrows indicate the approximate location of the target site for ASO1 on the pre-mRNA. Three independent immunoprecipitation replicates were conducted per experiment. Data are represented as mean ± S.D. (n = 3, *p < 0.05, two-tailed Student’s t test).
Approximately 2×10^6 HEK293T cells per sample were treated for 10 min in 1% (v/v) formaldehyde at room temperature to crosslink protein-DNA complexes. Crosslinking was stopped with glycine at a final concentration of 125 mM. Cells were washed twice with cold PBS and swelled on ice for 10 min in 25 mM HEPES pH 8, 1.5 mM MgCl2, 10 mM KCl, 0.1% NP-40, 1 mM DTT and 1× protease inhibitor cocktail set III (Calbiochem). Following Dounce homogenization, the nuclei were collected and resuspended in 1 ml sonication buffer (50 mM HEPES pH 8, 140 mM NaCl, 1 mM EDTA, 0.1% sodium deoxycholate, 0.1% SDS and 1× protease inhibitor cocktail). DNA was sonicated in an ultrasonic bath (Bioruptor Diagenode) to an average length of 200-500 bp. After addition of 1% (v/v) Triton X-100, samples were centrifuged at 15,000 ×g. […] Immunoprecipitated DNA (1.5 µl) and serial dilutions of the 10% input DNA (1:4, 1:20, 1: 100, and 1:500) were analyzed by SYBR-Green real-time qPCR.

## ASO1: 5′-ATTCACTTTCATAATGCTGG-3′ 2′-O-methoxyethyl-modified oligonucleotide with phosphorothioate backbone and all 5-methyl cytosines; nusinersen variant with 2-nucleotide extension (antisense eA*eT*eT*e[5mC]*eA*e[5mC]*eT*eT*eT*e[5mC]*eA*eT*eA*eA*eT*eG*e[5mC]*eT*eG*eG)
[1]
  H3K27 trimethylation over the SMN2 gene: not affected
[2]
  RNAPII accumulation on the SMN2 transgene in liver and brain: RNAPII accumulation
